Measured values taken from US20050272692A1, “Sucrose ester compounds useful as fungicides” (priority 2004, published 2005).
Where two headings read alike, the source gives them in different places.

Tests used:
[1] = test system: Aspergillus niger
[2] = test system: Alternaria sp
[3] = test system: Mucor sp
[4] = test system: Stachybotrys chartarum
[5] = test system: Fusarium graminearum
[6] = test system: Rhizoctonia solani
[7] = test system: Pythium ultimum
[8] = test system: Aspergillus parasiticus; details: for growth: all concentrations, malt extract agar, 25° C., 144 hours
Experimental: (§1) For each fungus tests were conducted on malt extract agar that was amended with five concentrations of sucrose octanoate. The control medium was standard malt extract agar. The concentrations were prepared based on 100% active ingredient. The parts per million were calculated afterwards to account for a concentration of 40% active ingredient. All fungi in the tests were incubated at 25° C. for 144 hours.
(§2) For each fungi tests were conducted on malt extract agar that was amended with five concentrations of sorbitol octanoate. The control medium was standard malt extract agar. The concentrations were prepared based on 100% active ingredient. The parts per million were calculated afterwards to account for a concentration of 40% active ingredient. All fungi in the tests were incubated at 25° C. for 144 hours.

[9] = test system: Stachybotrys chartarum; details: for growth during incubation period: 144 hour incubation, all concentrations; for growth: all concentrations (400 to 2000 ppm), malt extract agar, 25° C.
[10] = test system: Rhizopus; details: 1000 ppm, lab trial
[11] = test system: Aspergillus flavus; details: for growth: all concentrations, malt extract agar, 25° C., 144 hours
Experimental: as §1, §2

[12] = test system: Stachybotrys; details: 1000 ppm, lab trial
[13] = test system: Penicillium; details: lab trial
[14] = test system: Penicillium chrysogenum; details: low concentrations, malt extract agar, 25° C., 144 hours
Experimental: as §1, §2

[15] = test system: Rhizopus stolonifer; details: for growth during incubation period: 144 hour incubation
Experimental: as §1, §2

[16] = test system: three different fungi; details: 2000 ppm, lab trial
[17] = 2000 ppm, d.f=2, p<0.05, unpaired one-tailed T-tests

Zinc Mono-Sucrose Succinate [Compound A]
reduction of radial growth ([1]; 1000 ppm): 65.6%
sporulation ([1]; 1000 ppm medium, also high on control medium): high
radial growth diameter ([1]; 1000 ppm, control medium 63.0 mm): 21.7 mm
growth ([1]; 5000 ppm): no significant level of growth
reduction of radial growth ([2]; 1000 ppm): 64.9%
radial growth diameter ([2]; 1000 ppm, control 28.5 mm): 10 mm
growth ([2]; 5000 ppm): no significant level of growth
reduction of radial growth ([3]; 1000 ppm): 74.4%
radial growth diameter ([3]; 1000 ppm, control 66.5 mm): 17 mm
growth ([3]; 5000 ppm): no significant level of growth
reduction of radial growth ([4]; 1000 ppm): 66.0%
sporulation ([4]; 1000 ppm medium, high levels on control medium): reduced to low levels
radial growth diameter ([4]; 1000 ppm, control medium 19.7 mm): 6.7 mm
growth measurement ([4]; 5000 ppm, very limited growth): 2.7 mm
reduction of radial growth ([5]; 1000 ppm): 73%
radial growth diameter ([5]; 1000 ppm, control 67.6 mm): 18.3 mm
inhibition ([5]; 5000 ppm): no additional inhibition over the 1000-ppm assay
reduction of radial growth ([6]; 1000 ppm): 75.4%
radial growth diameter ([6]; 1000 ppm, control 62.3 mm): 15.3 mm
growth measurement ([6]; 5000 ppm, very limited growth): 10 mm
reduction of radial growth ([7]; 1000 ppm): 92.3%
radial growth diameter ([7]; 1000 ppm, control 85 mm): 6.6 mm
growth ([7]; 5000 ppm): no significant level of growth

sorbitol octanoate
growth [8]: able to grow
growth during incubation period [9]: No growth
growth [9]: inhibited
growth of fungus [10]: prevented the growth
growth [11]: able to grow
growth of fungus [12]: prevented the growth
growth of fungus ([13]; 2000 ppm): some growth
growth [14]: able to grow, although slowly compared to the control

sucrose octanoate
growth compared with control plates [8, 17]: significantly less
growth [8]: able to grow
growth during incubation period [9]: No growth
growth [9]: inhibited
growth of fungus [10]: prevented the growth
growth during incubation period ([15]; all concentrations tested): no growth
growth during incubation period ([15]; all concentrations with the exception of 400 ppm level): no growth
growth ([15]; all concentrations tested (400 to 2000 ppm), malt extract agar, 25° C.): inhibited
growth compared with control plates [11, 17]: significantly less
growth [11]: able to grow
growth of fungus [12]: prevented the growth
growth of fungus ([13]; 1000 ppm): some growth
growth of fungi [16]: prevented the growth
growth [14]: able to grow, although slowly compared to the control
